Laboratory results: patent US6855338B2, “Anti-tumor therapies comprising a combination of a cartilage extract and an anti-neoplastic agent providing high efficacy and low toxic side effects” (priority 1997, dated 2005)

Tests used:
[1] = Toxic side effects by body weights of LLC mice; type: in vivo, C57B1/6 mice; settings: CDDP alone 4 mg/kg; after fifteen days from inoculation
Experimental: LLC cells were resuspended in sterile PBS (10^6 cells/0.2 ml) and implanted in C57B1/6 mice. After a period of 11 days, primary tumors reached an average volume of 1.0 cm^3 and were surgically resected. After surgery, mice were randomized into groups of 15 animals and control article (saline) and cartilage extract were administered on a daily basis via oral gavage at the dose levels indicated for a period of 15 days. At day 16-post-surgery, animals were sacrificed, the lungs fixed in 10% […] and the number of lung metastases counted. Animals were always kept under controlled environment: temperature 22° C., humidity 40% to 50%, light/dark cycle: 12 hours. They were fed and given water ad libitum. The toxic side effects were evaluated by measuring the body weights. The results are illustrated in FIG. 2. During the first week of treatment, the body weights increased in all groups. Treatment started on Day 12 of the protocol. The decrease in body weight observed between the second and the third time point of the graph results from the surgery (on day 11) necessary to remove the primary LLC tumor mass. After fifteen days from inoculation, it was observed that CDDP alone was very toxic since a decrease of about 16% of body weight occurred in comparison to the non-treated group.

LLC lung metastasis = assay: Lewis lung carcinoma model (LLC), number of lung metastases; type: in vivo, C57B1/6 mice; settings: for Percent reduction from control (lung metastases): first experiment
Experimental: We have verified the anti-tumor efficacy and the protective effect of cartilage extract by testing a combination of diverse concentrations of cartilage liquid extract alone and in combination with cisplatin (CDDP), in the Lewis lung carcinoma model (LLC). LLC cells were resuspended in sterile PBS (10^6 cells/0.2 ml) and implanted in C57B1/6 mice. After a period of 11 days, primary tumors reached an average volume of 1.0 cm^3 and were surgically resected. After surgery, mice were randomized into groups of 15 animals and control article (saline) and cartilage extract were administered on a daily basis via oral gavage at the dose levels indicated for a period of 15 days. At day 16-post-surgery, animals were sacrificed, the lungs fixed in 10% […] and the number of lung metastases counted. Animals were always kept under controlled environment: temperature 22° C., humidity 40% to 50%, light/dark cycle: 12 hours. They were fed and given water ad libitum. In a first experiment, five injections of CDDP were given intraperitoneally every three days (1, 2 and 3 mg/Kg). Cartilage extract was given per as daily (31, 125 and 500 mg/Kg). Saline was given as a control. In a second independent experiment, CDDP was given at a dose of 4 mg/kg. Cartilage extract was given at doses 75, 150 and 500 mg/kg. Saline was given again as a control. Administration of CDDP alone reduced the number of metastases by about 71%.

[2] = test system: peripheral white blood cells; assay: Number of peripheral white blood cells in normal mice; type: in vivo; settings: for Number of white blood cells: day 15
Experimental: Toxicity was evaluated in cancerous animals by the body weight decrease. We further characterized the nature of the protective effect provided by the cartilage extract by assessing an hematology parameter namely the number of peripheral white blood cells. Normal mice were injected (l.P.) with CDDP (3 and 4 mg/kg) on days 1, 4, 7, 10 and 13 of the experimental protocol. The cartilage extract was administered, orally, at doses of 75, 150 and 500 mg/kg/day. Animals were sacrificed on day 15 and blood samples were collected for cell count using an automated blood cell analyzer. Groups consisted of animals receiving CDDP alone, the cartilage extract alone, both in combination or saline as negative control. […] Values obtained from individual groups that have received cartilage extract were pooled to increase statistical power. Mean white blood cell counts were plotted according to treatment group regimen (FIG. 3). A linear trend indicated a clear monotonic trend (r^2=0.9126) for as decrease in cell counts according to treatment regimen stringency. This observation is in agreement with a protective effect of the cartilage extract relative to the peripheral white blood cell population reduced during CDDP administration.

Number of white blood cells ([2]; CDDP 3 mg/kg i.p. days 1, 4, 7, 10, 13): 3.4e+09 L⁻¹
Number of white blood cells ([2]; CDDP 4 mg/kg i.p. days 1, 4, 7, 10, 13): 3.3e+09 L⁻¹
Structure (SMILES): [NH2][Pt]([NH2])([Cl])[Cl] [CDDP, cisplatin]
decrease of body weight in comparison to the non-treated group [1]: about 16%
Percent reduction from control (lung metastases) (LLC lung metastasis; CDDP 1 mg/kg i.p., alone): 19%
Percent reduction from control (lung metastases) (LLC lung metastasis; CDDP 2 mg/kg i.p., alone): 35%
Percent reduction from control (lung metastases) (LLC lung metastasis; CDDP 3 mg/kg i.p. every three days x5, alone): 54%
reduction of the number of metastases (LLC lung metastasis; CDDP alone 4 mg/kg, second independent experiment): about 71%
decrease in metastases (LLC lung metastasis; CDDP alone at 5 mg/kg (data not shown), stated equivalent to the 500 mg/kg/day + 3 mg combination): ~85%
effect on number of white blood cells ([2]; CDDP 3 and 4 mg/kg alone): significant decrease of the number of white blood cells
